Assay results reported in patent publication US8883856B2, “Compositions and methods for the treatment of inflammatory diseases using topoisomerase inhibitors” (priority 2000, dated 2014).
Converted amounts (≈) assume the structure as drawn. Like-named read-outs stand apart in the source and are kept apart here.

Columns and labels:
[1] = system: human neutrophils; experiment: Neutrophil chemiluminescence (neutrophil activation); assay type: cell-based; details: Homo sapiens, Neutrophil, read-out: IC 50, inhibition of neutrophil chemiluminescence
Description: Freshly prepared human neutrophils were incubated with the compound followed by stimulation of the cells with either plasma opsonized CPPD crystals, the bacterial chemoattractant, fMLP or the phorbol ester, PMA. Stimulation (or activation) of the cells induced superoxide anion generation which could be measured by the emission of light (chemiluminescence). Inhibition of neutrophil function was then determined by inhibition of chemiluminescence. Hanks buffered salt solution (HBSS) pH 7.4 was used throughout the study. All chemicals were purchased from Sigma Chemical Co. (St. Louis, Mo.) unless otherwise stated. All procedures were performed at 37° C. unless otherwise stated. CPPD (triclinic) crystals were prepared and characterized as previously reported (Jackson J K et al., J Rheumatol, 24: 341-348, 1996). The size distribution of the crystals was approximately 33% less than […]. Opsonization of crystals was carried out using 50% heparinized plasma and concentrations of 50 mg of CPPD in 1 mL of 50% plasma. Crystals were incubated with diluted plasma for 30 min at 37° C., centrifuged at 1000×g, then washed in HBSS and recentrifuged. Neutrophils were prepared from freshly collected, human, citrated whole blood. Briefly, 400 mL of blood were mixed with 80 mL of 4% dextran T500 (Pharmacia LKB, Biotechnology AB Uppsala, Sweden) in HBSS and allowed to settle for 1 h. Plasma was collected continuously and 5 mL applied to 5 mL Ficoll Paque (Pharmacia) in 15 mL polypropylene tubes (Corning, N.Y.). Following centrifugation at 500×g for 30 min, the neutrophil pellets were washed free of erythrocytes by 20 s of hypotonic shock. Neutrophils were resuspended in HBSS, kept on ice and used for experiments within 3 h. Neutrophil viability and purity was always greater than 90%.
A stock solution of drug was diluted in DMSO to give various concentrations of drug. Equal volumes of these solutions were added to neutrophils at 5×10^6 cells per mL under mild vortexing to achieve final concentrations with a final DMSO concentration of 0.25%. This DMSO concentration found to have no effect on control cell responses. Cells were incubated for 15 minutes at 37° C. before addition to crystals, fMLP or PMA.
Chemiluminescence studies were performed at a cell concentration of 5×10^6 cells per mL in HBSS with CPPD (50 mg/mL). In all experiments 0.5 mL of cells were added to 25 mg of CPPD or 1 uM fMLP (and 0.5 uM cytochalasin B) or 0.5 uM PMA in 1.5 ml Eppendorf tubes. To the tubes were added 10 uL of luminol dissolved in 25% DMSO in HBSS to give a final concentration of 1 μM and the samples were mixed to initiate neutrophil activation. Chemiluminescence was monitored using an LKB Luminometer (Model 1250) at 37° C. with shaking immediately prior to measurements to resuspend the crystals. Control tubes contained cells, drug and luminol (crystals absent).

[2] = system: stromelycin gene; experiment: IL-1 induced stromelycin gene expression in chondrocytes; assay type: cell-based, calf; details: for IL-1 induced stromelycin gene expression: 1×10^−5 M
Description: This assay measures the levels of RNA for the two metalloproteinases, collagenase and stromelysin. Over-expression of these genes results in excessive synthesis and secretion of these two enzymes from articular chondrocytes and may represent part of the pathophysiology of rheumatoid arthritis. Agents that inhibit over-expression of collagenase and stromelysin can be antiarthritc agents. […] Proteoglycan gene expression is part of the normal physiology of chondrocytes.
Primary chondrocyte culture was freshly isolated from calf cartilage. The cells were plated (at 2.5×10^6/mL) in 100×20 mm culture dishes and incubated in Ham's F12 medium containing 5% fetal bovine serum (FBS) overnight at 37° C. The cells were starved with serum-free medium overnight. […] Then IL-1 (20 ng/mL) was added to each plate and the plates were incubated for an additional 18 hours. Total RNA was isolated by the acidified guanidine isothiocyanate method and subjected to electrophoresis on a denatured gel. Denatured RNA samples (15 ug) were analyzed by gel electrophoresis in a 1% denaturing gel, transferred to a nylon membrane, and hybridized respectively with the ^32P-labelled collagenase cDNA probe, ^32P-labelled stromelycin cDNA probe, ^32P-labelled proteoglycan cDNA probe and ^32P-labelled glyceraldehyde phosphate dehydrogenase (PAGDH) cDNA. The PAGDH levels acted as an internal standard to ensure roughly equal loading. The experimental results on X-ray films were scanned and analyzed with HP ScanJet.

[3] = system: chorioallantoic membrane of the chick embryo; experiment: Angiogenesis in the chick chorioallantoic membrane (CAM assay); assay type: in vivo; details: for number of eggs (CAM's) with antiangiogenic activity Partial (score 1-2): 48 hours; for inhibition of angiogenesis in the CAM, in words: summary over all concentrations tested in PCL or PCL-MePEG pellets
Description: Sheets of sterile waxed paper were placed onto the window that was created in the air space and were used to prevent contamination and dehydration of the egg contents. These sheets, measuring 4 cm×4 cm, were sterilized by spraying them with 70% ethanol and allowing them to dry in the laminar flow hood. […] Using 70% ethanol and Kimwipes, the entire eggshell was wiped down to help clean and sanitize the outside of the egg. Inside a laminar flow hood, the egg was held with the blunt side up and a hole was made in the blunt end of the egg by carefully cracking the shell with the end of forceps. The shell remnants were gently removed with forceps to form a hole in the blunt end. This circular hole was made as large as 2 to 3 cm in diameter without damaging the inner membrane. Once the hole was created in the shell, the inner shell membrane (which houses the egg contents) was gently torn and removed using the forceps, taking care not to damage the chorioallantoic membrane (CAM) (which houses the yolk and developing chick embryo). The hole was then covered with the sheet of sterilized parafilm wax paper by gently stretching the parafilm and then placing it around the hole. The egg was then placed in the egg rack in the incubator (37° C.) and positioned in such a way as to prevent rotation. After 6 days each egg was removed one by one from the incubator (blunt side up), and the parafilm covering the window was removed for direct access to the CAM, which originates from the hind gut of the embryo. The drug-loaded polymer was placed onto the growing capillary bed of the CAM. The egg contents were then resealed with the parafilm sheet and placed back into the 37° C. incubator. […] The values of the avascular scale describe the following: […]

[4] = In vitro drug release from polymeric formulations; assay type: physicochemical
[5] = polycaprolactone microspheres, PBS pH 7.4, 37° C.
[6] = polycaprolactone paste, PBS, 37° C.

SMILES | IC50 ([1]; activation by MSUM crystals) [µg/mL] | IL-1 induced stromelycin gene expression [2] | number of eggs (CAM's) with antiangiogenic activity Partial (score 1-2) ([3]; 2.0% w/w in PCL pellet) | generalized cytotoxicity in the CAM ([3]; drug-loaded PCL pellets) | inhibition of angiogenesis in the CAM, in words [3] | drug release profile [4, 5] | drug release profile [4, 6] | IC50 ([1]; three agonists: CPPD crystals, fMLP, PMA) [µg/mL] | stromelysin expression ([2]; 1×10^−6 M) | number of eggs (CAM's) with antiangiogenic activity Partial (score 1-2) ([3]; 1.0% w/w in PCL pellet) | generalized cytotoxicity in the CAM ([3]; in vivo) | drug release profile ([4]; chitosan films, PBS pH 7.4, 37° C.) | drug release profile ([4]; ethylene vinyl acetate films, PBS pH 7.4, 37° C.) | drug release profile ([4]; poly(L-lactic acid) microspheres, PBS pH 7.4, 37° C.) | drug release profile ([4]; triblock copolymer/MePEG paste, PBS pH 7.4 with n-octanol, 37° C.)
CC1=CC(=O)c2ccccc2C1=O [menadione] | 0.5 to 1 (≈ 2.9 to 5.81 µM) | inhibited | Necrosis | some evidence of necrosis in non-capillary cells and membrane thinning | partial inhibition of angiogenesis in a number of CAM's | initial burst of drug release followed by a slow sustained release | initial burst of drug release followed by a slow sustained release |  |  |  |  |  |  |  | 
CC1=CC(=O)c2c(O)cccc2C1=O [plumbagin] |  | completely inhibited |  |  | partial inhibition of angiogenesis in a number of CAM's | initial burst of drug release followed by a slow sustained release | initial burst of drug release followed by a slow sustained release | < 1 | partial inhibition | Necrosis | some evidence of necrosis in non-capillary cells and membrane thinning | initial burst of drug release followed by a slow sustained release | initial burst of drug release followed by a slow sustained release | initial burst of drug release followed by a slow sustained release | initial burst of drug release followed by a slow sustained release
